# Assay results taken from patent US20180179574A1, “SYSTEMS AND METHODS FOR CHARACTERIZATION OF […]” (The University of Chicago, priority 2015, published 2018).
# Columns and labels:
# [1] = target: T1, Leukocyte-LpL (Homo sapiens, UniProt P06858); assay: Leukocyte LpL hydrolytic potential / lipase response to stimulation assay (fluorogenic ENZCHEK TG substrate); format: cell-based; conditions: leukocytes washed with heparin removing surface LpL
# T1 construct: analyze the activity of endogenous cell-associated LpL from a blood sample; host or cells: primary leukocytes (buffy coat) from fresh whole blood
# T1 sequence (P06858 28-475): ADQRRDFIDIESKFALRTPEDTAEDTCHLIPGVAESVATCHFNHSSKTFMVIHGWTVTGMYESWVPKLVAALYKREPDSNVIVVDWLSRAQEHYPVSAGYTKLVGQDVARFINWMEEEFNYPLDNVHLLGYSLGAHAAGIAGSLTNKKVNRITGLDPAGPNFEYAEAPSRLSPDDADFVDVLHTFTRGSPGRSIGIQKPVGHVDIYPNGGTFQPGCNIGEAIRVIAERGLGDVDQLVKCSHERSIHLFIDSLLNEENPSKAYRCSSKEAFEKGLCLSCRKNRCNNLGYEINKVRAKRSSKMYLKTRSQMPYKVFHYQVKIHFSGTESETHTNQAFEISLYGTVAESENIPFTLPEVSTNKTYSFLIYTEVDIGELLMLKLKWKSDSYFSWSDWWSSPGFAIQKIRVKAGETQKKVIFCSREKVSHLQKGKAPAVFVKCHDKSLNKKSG
# Protocol: FIG. 6. Leukocyte-LpL activity is detectible and responsive to C-II51-79 and AV199-232 peptide stimulation. Leukocytes (buffy coat) was collected by centrifugation of fresh whole blood from healthy donors (Zen Bio Inc.), rinsed and then incubated with LpL reaction mix (A, B). Leukocytes were also incubated with […] CII51-79 and/or AV199-232 (A). […] Increasing fluorescent plate reader gain can increase sensitivity to low femto molar range (C).
# Experiments were conducted during development of embodiments of the present invention using an in vitro assay that utilizes bovine milk LpL (SIGMA) diluted to ˜120 ng/ml in Tris-HCl, 0.15M NaCl (TBS), 1%(w/v) BSA, 0.015%(w/v) Zwittergent 3-14, pH 7.8+1 μM to 25 μM ENZCHEK substrate, prepared in black polypropylene microplates. […] Detection of product is performed with a fluorescent plate reader using excitation/emission wavelengths of 482 nm and 515 nm. The assay is sensitive to fmol/L of LpL (130% gain on reader) (FIG. 6C) and product accumulation increases linearly with increasing enzyme concentrations (FIG. 1A). The absolute product concentration is proportional to the relative fluorescence units (RFU) and can be calculated using BODIPY-C12 fatty acid (D3823, Life Technologies Inc.) as a standard and allows the determination of reaction rates (i.e. ng/ml/min) and Michaelis-Menten kinetic parameters. […]
# [2] = test system: HepG2; assay: Lipase assay with live cells (HepG2), fluorogenic TG substrate; format: cell-based; conditions: HepG2 cells washed with heparin
# Protocol: FIG. 2. The lipase assay is non-toxic and detects enzyme activity with live cells. The removal of the reaction mix from the cells (HepG2) stops substrate hydrolysis but is reinitiated once added back to the same cells (A).
# Experiments were conducted during development of embodiments of the present invention using an in vitro assay that utilizes bovine milk LpL (SIGMA) diluted to ˜120 ng/ml in Tris-HCl, 0.15M NaCl (TBS), 1%(w/v) BSA, 0.015%(w/v) Zwittergent 3-14, pH 7.8+1 μM to 25 μM ENZCHEK substrate, prepared in black polypropylene microplates. In some embodiments, the lipase reaction is performed at room temperature or 37° C. for 10 min to 60 min. Detection of product is performed with a fluorescent plate reader using excitation/emission wavelengths of 482 nm and 515 nm. The assay is sensitive to fmol/L of LpL (130% gain on reader) (FIG. 6C) and product accumulation increases linearly with increasing enzyme concentrations (FIG. 1A). The absolute product concentration is proportional to the relative fluorescence units (RFU) and can be calculated using BODIPY-C12 fatty acid (D3823, Life Technologies Inc.) as a standard and allows the determination of reaction rates (i.e. ng/ml/min) and Michaelis-Menten kinetic parameters. […] Furthermore, the mild nature of the assay formulation allows LpL activity to be determined with live cells in cell culture or isolated cells (FIG. 2).
substance,measurement,setting,value
heparin,Leukocyte substrate hydrolysis after washing cells with heparin,[1],substrate hydrolysis was lost
same,Substrate hydrolysis by live cells after washing cells with heparin,[2],inhibits substrate hydrolysis
